Results published in patent US20210128654A1, “COMPOSITION FOR TREATING, PREVENTING, OR IMPROVING MALE INFERTILITY” (Mugen General Incorporated Association, priority 2018, published 2021).

Key:
Assay type in all cases: in vivo
[1] = test system: male testis-specific non-mitochondrial GPx4 knockout mouse; assay: Mating test of male infertility model mouse (number of pregnancies and child mice); conditions: "VE high-content feed": vitamin E 100 mg + CE-2 feed 100 g, mating period 3 months
Description: In this Example, as a male infertility model mouse, a male testis-specific non-mitochondrial GPx4 knockout mouse was used (see, Non Patent Literature 2). The testis-specific non-mitochondrial GPx4 knockout mouse is a mouse deficient in non-mitochondrial phospholipid hydroperoxide glutathione peroxidase (cGPx4) in the testis and has the phenotypes listed in the following Table 1.
(§1) A single 3 weeks-old male testis-specific non-mitochondrial GPx4 knockout mouse was assigned to each of the four groups shown in Table 2 (below) and separately raised (singly per cage) up to 8 weeks-old. To a normal control group, mouse breeding feed CE-2 (CLEA Rodent Diet CE-2; a product manufactured by CLEA Japan, Inc.) was fed during the test period. As a positive control substance, vitamin E (Non Patent Literature 1), which is used in treatment for male infertility, was selected and a mixture of feed CE-2 and vitamin E was fed to a positive control substance administration group during the test period. The ratio of vitamin E in the mixture was 100 mg relative to 100 g of feed CE-2. To the test groups, a mixture of feed CE-2 and koji mold fermentation product obtained in Example 1 was fed during the test period. For a low dose group, a feed having a content of koji mold fermentation product of 0.5 wt % was used. For a high dose group, a feed having a content of koji mold fermentation product of 5.0 wt % was used. Feed CE-2 and feed CE-2 mixed with the positive control substance or a koji mold fermentation product were free to take and water was free to drink from a water-supply bottle. In the aforementioned conditions, mice were raised from 3 weeks-old to 8 weeks-old.
When male testis-specific non-mitochondrial GPx4 knockout mice grew up to be crossable (8 weeks-old) mice, three of 7 weeks-old BALB/c female mice were assigned to each cage and crossed with a single male testis-specific non-mitochondrial GPx4 knockout mouse. The mating period was 3 months. […]

[2] = test system: male testis-specific non-mitochondrial GPx4 knockout mouse; assay: Abnormal sperm ratio and sperm-tail fold angle by microscopy; conditions: "VE high-content feed": vitamin E 100 mg + CE-2 feed 100 g; FIG. 4
Description: as §1, with “For a high dose group, a feed having a content of koji mold fermentation product of 5.0 wt % was used. Feed CE-2 and feed CE-2 mixed with the positive control substance or a koji mold fermentation product were free to take and water was free to drink from a water-supply bottle. In the aforementioned conditions, mice were raised from 3 weeks-old to 8 weeks-old.” left out
In a testis-specific non-mitochondrial GPx4 knockout mouse, a half or more of the sperms have an abnormal structure (a sperm tail is folded to form a hair-pin structure); in other words, abnormal sperm morphology. […] The sperms in a plurality of fields of view under the microscope were photographed, and the numbers of normal sperms and abnormal sperms in the photographs were counted, and then, an average ratio of abnormal sperms was calculated.

[3] = test system: male testis-specific non-mitochondrial GPx4 knockout mouse; assay: Testis tissue observation (hematoxylin eosin), removal of spermatocytes; conditions: "VE high-content feed": vitamin E 100 mg + CE-2 feed 100 g; FIG. 6
Description: A single 3 weeks-old male testis-specific non-mitochondrial GPx4 knockout mouse was assigned to each of the four groups shown in Table 2 (below) and separately raised (singly per cage) up to 8 weeks-old. To a normal control group, mouse breeding feed CE-2 (CLEA Rodent Diet CE-2; a product manufactured by CLEA Japan, Inc.) was fed during the test period. As a positive control substance, vitamin E (Non Patent Literature 1), which is used in treatment for male infertility, was selected and a mixture of feed CE-2 and vitamin E was fed to a positive control substance administration group during the test period. The ratio of vitamin E in the mixture was 100 mg relative to 100 g of feed CE-2. To the test groups, a mixture of feed CE-2 and koji mold fermentation product obtained in Example 1 was fed during the test period. For a low dose group, a feed having a content of koji mold fermentation product of 0.5 wt % was used. For a high dose group, a feed having a content of koji mold fermentation product of 5.0 wt % was used. Feed CE-2 and feed CE-2 mixed with the positive control substance or a koji mold fermentation product were free to take and water was free to drink from a water-supply bottle. In the aforementioned conditions, mice were raised from 3 weeks-old to 8 weeks-old. […]

vitamin E was tested, and the “total number of child mice” value ([1]; 3 females, FIG. 2b) was 60, the “number of child mice per delivery of the female mice” value ([1]; FIG. 2c) was 7 and the “total number of pregnancies of three female mice” value ([1]; single male x 3 BALB/c females, FIG. 2a) was 8. For the same substance, the “significantly low ratio of abnormal sperms” value [2] was “not observed” and the “removal of the spermatocytes in testis tissue” value [3] was “improved”.
